Experimental data: patent US8802597B2, “Herbicidal pyrimidines” (E I du Pont de Nemours and Company, priority 2003, dated 2014)

Key:
Assay type in all cases: in vivo
[1] = tested on: Surinam grass (Brachiaria decumbens); experiment: Test B pre/postemergence
Summary of the method: (§1)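 Compounds in non-phytotoxic solvent with surfactant applied preemergence to planted seeds or postemergence to plants 2 to 18 cm tall (1- to 4-leaf stage). Greenhouse 13 to 15 days, then visual rating against controls on a 0 to 100 scale (100 = complete control).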

[2] = tested on: barnyardgrass (Echinochloa crus-galli); experiment: Test B pre/postemergence
Summary of the method: as §1

[3] = tested on: cocklebur (Xanthium strumarium); experiment: Test B pre/postemergence
Summary of the method: as §1

corn (Zea mays) = experiment: Test B pre/postemergence
Summary of the method: as §1

[4] = tested on: crabgrass (Digitaria sanguinalis); experiment: Test B pre/postemergence
Summary of the method: as §1

[5] = tested on: giant foxtail (Setaria faberii); experiment: Test B pre/postemergence
Summary of the method: as §1

[6] = tested on: lambsquarters (Chenopodium album); experiment: Test B pre/postemergence
Summary of the method: as §1

[7] = tested on: morningglory (Ipomoea coccinea); experiment: Test B pre/postemergence
Summary of the method: as §1

[8] = tested on: pigweed (Amaranthus retroflexus); experiment: Test B pre/postemergence
Summary of the method: as §1

[9] = tested on: velvetleaf (Abutilon theophrasti); experiment: Test B pre/postemergence
Summary of the method: as §1

[10] = tested on: wheat (Triticum aestivum); experiment: Test B pre/postemergence
Summary of the method: as §1

[11] = tested on: blackgrass (Alopecurus myosuroides); experiment: Test B postemergence
Summary of the method: as §1

wild oat (Avena fatua) = experiment: Test B postemergence
Summary of the method: as §1

[12] = tested on: barnyardgrass (Echinochloa crus-galli); experiment: Test B flooded paddy test; details: Flood, 1000 g ai/ha; scale 0 (no effect) to 100 (complete control)
Summary of the method: (§2)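 Visual injury scoring (0 = no effect, 100 = complete control) versus controls made 13 to 15 days after treatment in the greenhouse. Test species were grown in flooded paddy to the 2-leaf stage: rice, barnyardgrass, umbrella sedge, duck salad.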

[13] = tested on: duck salad (Heteranthera limosa); experiment: Test B flooded paddy test; details: Flood, 1000 g ai/ha; scale 0 to 100
Summary of the method: as §2

rice (Oryza sativa) = experiment: Test B flooded paddy test; details: Flood, 1000 g ai/ha; scale 0 to 100
Summary of the method: as §2

[14] = tested on: umbrella sedge (Cyperus difformis); experiment: Test B flooded paddy test; details: Flood, 1000 g ai/ha; scale 0 to 100
Summary of the method: as §2

[15] = Postemergence, 125 g ai/ha, scale 0 to 100 (0 no effect, 100 complete control)
[16] = Postemergence, 500 g ai/ha, scale 0 to 100
[17] = Preemergence, 125 g ai/ha, scale 0 to 100 (0 no effect, 100 complete control)
[18] = Preemergence, 500 g ai/ha, scale 0 to 100 (0 no effect, 100 complete control)
[19] = 125 g ai/ha, scale 0 to 100 (0 no effect, 100 complete control)

Structure (SMILES): CCOC(=O)C(OC(C)=O)c1nc(C2CC2)nc(N)c1Br (stereo not shown) [Compound 47]
- Surinam Grass plant response rating [1, 15]: 0
- Plant response rating, Surinam Grass [1, 16]: 20
- Plant response rating, Surinam Grass [1, 17]: 0
- Surinam Grass plant response rating [1, 18]: 20
- Barnyardgrass plant response rating [2, 15]: 20
- Plant response rating, Barnyardgrass [2, 16]: 60
- Plant response rating, Barnyardgrass [2, 17]: 0
- Barnyardgrass plant response rating [2, 18]: 40
- Cocklebur plant response rating [3, 15]: 90
- Plant response rating, Cocklebur [3, 16]: 100
- Plant response rating, Cocklebur [3, 17]: 80
- Cocklebur plant response rating [3, 18]: 90
- Corn plant response rating (corn (Zea mays); [15]): 0
- Plant response rating, Corn (corn (Zea mays); [16]): 0
- Plant response rating, Corn (corn (Zea mays); [17]): 0
- Corn plant response rating (corn (Zea mays); [18]): 30
- Crabgrass plant response rating [4, 15]: 10
- Plant response rating, Crabgrass [4, 16]: 60
- Plant response rating, Crabgrass [4, 17]: 20
- Crabgrass plant response rating [4, 18]: 90
- Foxtail, Giant plant response rating [5, 15]: 10
- Plant response rating, Foxtail, Giant [5, 16]: 50
- Plant response rating, Foxtail, Giant [5, 17]: 20
- Foxtail, Giant plant response rating [5, 18]: 40
- Lambsquarters plant response rating [6, 15]: 80
- Plant response rating, Lambsquarters [6, 16]: 90
- Plant response rating, Lambsquarters [6, 17]: 90
- Lambsquarters plant response rating [6, 18]: 100
- Morningglory plant response rating [7, 15]: 80
- Plant response rating, Morningglory [7, 16]: 90
- Plant response rating, Morningglory [7, 17]: 80
- Morningglory plant response rating [7, 18]: 100
- Pigweed plant response rating [8, 15]: 70
- Plant response rating, Pigweed [8, 16]: 80
- Plant response rating, Pigweed [8, 17]: 80
- Pigweed plant response rating [8, 18]: 90
- Velvetleaf plant response rating [9, 15]: 20
- Plant response rating, Velvetleaf [9, 16]: 40
- Plant response rating, Velvetleaf [9, 17]: 60
- Velvetleaf plant response rating [9, 18]: 90
- Wheat plant response rating [10, 15]: 0
- Plant response rating, Wheat [10, 16]: 0
- Plant response rating, Wheat [10, 17]: 20
- Plant response rating, Wheat [10, 18]: 50
- Blackgrass plant response rating [11, 19]: 0
- Plant response rating, Blackgrass ([11]; 500 g ai/ha, scale 0 to 100): 0
- Oat, Wild plant response rating (wild oat (Avena fatua); [19]): 0
- Plant response rating, Oat, Wild (wild oat (Avena fatua); 500 g ai/ha, scale 0 to 100): 0
- Plant response rating, Barnyardgrass [12]: 0
- Plant response rating, Ducksalad [13]: 80
- Plant response rating, Rice (rice (Oryza sativa)): 0
- Plant response rating, Sedge, Umbrella [14]: 70
